Data as given in patent US20250011881A1, “MYC-HSF1 DUAL AMPLIFICATION AS A BIOMARKER FOR CANCER TREATMENT” (The Trustees of Indiana University, priority 2023, published 2025).
Several values for one entry are separate records, joined by “and”; a condition that tells them apart may be missing. Equal values may be shown once. Where a name gives a salt, the structure may show the parent alone.

System: ovarian cancer cells with (OVCAR8, OVCAR4) or without (OVSAHO, CAOV3) MYC-HSF1 amplification
Assay: Epigenetic inhibitor drug screen, cell viability (Cell Titer Blue)
Format: cell-based
Details: not given

Row | Compound | Non Amp - AMP (POC) 10 uM [POC]
1 | CC(C)(O)/C=C/C(=O)[C@](C)(O)[C@H]1[C@H](O)C[C@@]2(C)[C@@H]3CC=C4[C@@H](C=C(O)C(=O)C4(C)C)[C@]3(C)C(=O)C[C@]12C [Cucurbitacin I] | 0.02387
2 | Sodium Phenylbutyrate | −19.07
3 | CCCCCCCCCCCCC/C=C/[C@@H](O)[C@@H](N)CO [D-erythro-Sphingosine (synthetic), D-erythro-Sphingosine] | 2.713
4 | O=C(NCC(=O)N1CCCC1)Nc1ccc2cnccc2c1 [SGC707] | 4.518
5 | CO[C@@]12[C@H](COC(N)=O)C3=C(C(=O)C(C)=C(N)C3=O)N1C[C@@H]1N[C@@H]12 [Mitomycin C] | 14.14

Same assay, conditions: 10 uM, 48 hrs; average relative cell viability (vs 1% DMSO) of non-amplified cells (OVSAHO, CAOV3) minus that of MYC-HSF1 amplified cells (OVCAR8, OVCAR4); positive = greater response in amplified cells

Row | Compound | Non Amp - AMP (POC) 10 uM [POC]
6 | NC(=O)c1ccccn1 [Picolinamide] | 20.35
7 | O=C(c1cc(Cc2n[nH]c(=O)c3ccccc23)ccc1F)N1CCN(C(=O)C2CC2)CC1 [Olaparib (AZD2281, Ku-0059436), Olaparib] | 3.527
8 | COc1cc2c(cc1OC)C(=O)C(CC1CCN(Cc3ccccc3)CC1)C2 (centres unmarked) [Donepezil HCl] | −4.516
9 | Cc1ccc2nc(NCCN)c3ncc(C)n3c2c1 [BMS-345541 (free base)] | 19.27
10 | O=C([O-])CCC(O)C(=O)[O-].[Na+].[Na+] (centres unmarked) [a-hydroxyglutaric Acid (sodium salt), a-hydroxyglutaric Acid] | 3.785
11 | COC(=O)c1ccc(N2CCN(C)CC2)c(NC(=O)c2cccc(OC)c2)c1 [WDR5 0103] | 1.921
12 | CCOC(=O)NNc1nncc2ccccc12 [Todralazine (hydrochloride), Todralazine] | 13.07
13 | O=C(c1ccc(/C=C/c2n[nH]c3ccccc23)cc1)N1CCNCC1 [KW 2449] | 6.231
14 | COc1cc(C(=O)N2CC[C@@H](O)[C@@H](N)C2)cc2nc(-c3cc4ccccc4n3CC3CC3)n(C)c12.Cl [GSK484 (hydrochloride)] | 0.3153
15 | CCC(=O)N1CCOc2c(cc(-c3ccc(OC)c(OC)c3)cc2OC[C@H]2CCCN(C)C2)C1 [I-CBP112 (hydrochloride)] | 20.48
16 | O=S(=O)(c1cccc2cnccc12)N1CCCNCC1 [Fasudil (HA-1077) HCl, Fasudil] | 15.8
17 | COC(=O)/C=C/C(=O)N(O)CCCCNCc1ccc(COC(=O)Nc2cccc3ccccc23)cc1 [Methylstat (hydrate), Methylstat] | −5.079
18 | C#Cc1cccc(Nc2ncnc3cc(OC)c(OCCCCCCC(=O)NO)cc23)c1 [CUDC-101] | 28.26
19 | CS(=O)(=O)c1ccc(-c2nnc(/C=C/c3nnc(-c4ccc(C#N)cc4)o3)n2-c2ccccc2Cl)nc1 [G007-LK] | −1.13
20 | CC(C)c1cc(CNc2nc(Nc3cc(C4CC4)[nH]n3)cc(N3CCN(C)CC3)n2)on1 [XL228] | 17.3
21 | c1nc2nc(Nc3ccc(N4CCOCC4)cc3)nc(NC3CCCCC3)c2[nH]1 [Reversine] | −6.769
22 | CC(C)N(CCCNC(=O)Nc1ccc(C(C)(C)C)cc1)C[C@H]1O[C@@H](n2ccc3c(N)ncnc32)[C@H](O)[C@@H]1O [EPZ004777] | 6.632
23 | Cc1cc(C)c(CNC(=O)c2cc(-c3ccc(N4CCN(C)CC4)nc3)cc3c2c(C)cn3C(C)C)c(=O)[nH]1 [GSK503] | −0.09843

Row | Compound | Non Amp - AMP (POC) 10 uM [POC]
24 | Oc1cc(O)c2cc(O)c(-c3cc(O)c(O)c(O)c3)[o+]c2c1 [Delphinidin (chloride), Delphinidin] | 9.89
25 | CC(C)N(CCCNC(=O)Nc1ccc(C(C)(C)C)cc1)C[C@H]1O[C@@H](n2cc(Br)c3c(N)ncnc32)[C@H](O)[C@@H]1O [SGC 0946] | 1.268
26 | O=C([O-])CCCc1ccccc1.[Na+] [Sodium 4-phenylbutyrate] | 6.103
27 | COc1ccc2c(c1)c(C1=C(c3c[nH]c4ccccc34)C(=O)NC1=O)cn2CCCN(C)C [Go 6983] | 14.34
28 | O=c1[nH]c(=S)[nH]c(-c2ccccc2)c1Cc1c(O)ccc2ccccc12 [SIRT 1/2 Inhibitor IV] | 18.95
29 | Nc1nc(OCc2cc(Br)cs2)c2[nH]cnc2n1 [Lomeguatrib] | 9.851
30 | O=C1Nc2cc(Br)ccc2/C1=C1/Nc2ccccc2/C1=N\O [GSK-3 Inhibitor IX (BIO)] | −1.008
31 | O=C1NC(=O)/C(=C/c2cccc(C(F)(F)F)c2)S1 [SMI-4a] | −1.184
32 | Cl.Clc1ccc(-c2csc(NN=C3CCCC3)n2)cc1 [CPTH2 (hydrochloride)] | 6.251
33 | N#Cc1ccc(OC2CCC(NC(=O)CCSc3nc4ccccc4c(=O)[nH]3)CC2)cc1 (centres unmarked) [Tankyrase Inhibitors (TNKS) 49] | −7.406
34 | CCCCN(Cc1ccc(C(=O)NO)cc1)C(=O)Nc1ccccc1 [Nexturastat A] | 23.67
35 | O=C(O)[C@]1(Cc2cccc(Nc3nccs3)n2)CC[C@@H](Oc2cccc(Cl)c2F)CC1 [MK-5108 (VX-689)] | 0.08992
36 | Cn1ncnc1C1c2n[nH]c(=O)c3cc(F)cc(c23)NC1c1ccc(F)cc1 (centres unmarked) [BMN-673 8R, 9S] | −2.489
37 | O=[N+]([O-])c1ccc(Sc2cccc[n+]2[O-])c2nonc12 [NSC228155] | 4.767
38 | CC(C)c1cccc(=O)c(O)c1 [Hinokitiol] | −6.718
39 | CN(C)c1ccc(C(=O)NCCCCCCC(=O)NO)cc1 [M344] | 22.65
40 | Cc1nc(Nc2cnn(C3CCNCC3)c2)nc2c1N(C)C(=O)c1cc3ccccc3cc1N2C [HTH-01-015] | −3.924
41 | CC1COc2c(N3CCN(C)CC3)c(F)cc3c(=O)c(C(=O)O)cn1c23 (centres unmarked) [Ofloxacin] | 5.913

Same assay, conditions: 10 uM, 48 hrs; average relative cell viability (vs 1% DMSO) of non-amplified cells (OVSAHO, CAOV3) minus that of MYC-HSF1 amplified cells (OVCAR8, OVCAR4); positive = greater response in amplified cells; 10 µM

Row | Compound | Non Amp - AMP (POC) 10 uM
42 | Cl.O=C([C@@H](Cc1cccc(C(F)(F)F)c1)NS(=O)(=O)c1cc(F)c2c(c1)CCNC2)N1CCCC1 [(R)-PFI-2 (hydrochloride)] | 19.35 POC
43 | CCN(CC)Cc1ccc2cc(COC(=O)Nc3ccc(C(=O)NO)cc3)ccc2c1 [ITF 2357, Givinostat] | 40.35 POC
44 | O=Nc1ccc(O)c2ncccc12 [5-Nitroso-8-quinolinol] | 9.462 POC
45 | O=C(O)c1ccnc(C(=O)O)c1 [2,4-Pyridinedicarboxylic Acid] | −1.887 POC
46 | N#CC[C@H](C1CCCC1)n1cc(-c2ncnc3[nH]ccc23)cn1 [Ruxolitinib (INCB018424), Ruxolitinib] | −4.311 POC
47 | Nc1nc2nc[nH]c2c(=S)[nH]1 [Thioguanine] | 9.104 POC
48 | CCC(CC)(NC(=O)C(C)C)C(=O)N[C@@H](CCCN=C(N)N)C(=O)NC1(C(=O)NC(c2ccc(F)cc2)c2ccc(F)cc2)CCCC1 [MM-102] | 10.41 POC and 6.837 POC
49 | COc1ccccc1C(=O)Nc1cc2c(cc1N1CCCC1)n(C)c(=O)n2C [PFI-4] | 17.43 POC
50 | COc1ccccc1S(=O)(=O)Nc1ccc2c(c1)CN(C)C(=O)N2 [PFI-1] | 9.637 POC

Same assay, conditions: 10 uM, 48 hrs; average relative cell viability (vs 1% DMSO) of non-amplified cells (OVSAHO, CAOV3) minus that of MYC-HSF1 amplified cells (OVCAR8, OVCAR4); positive = greater response in amplified cells; listed as ITF2357 (Givinostat), 10 µM

Row | Compound | Non Amp - AMP (POC) 10 uM [POC]
51 | CCN(CC)Cc1ccc2cc(COC(=O)Nc3ccc(C(=O)NO)cc3)ccc2c1 [ITF 2357, Givinostat] | 13.67

Same assay, conditions: 10 uM, 48 hrs; average relative cell viability (vs 1% DMSO) of non-amplified cells (OVSAHO, CAOV3) minus that of MYC-HSF1 amplified cells (OVCAR8, OVCAR4); positive = greater response in amplified cells; listed as PFI 4, 10 µM

Row | Compound | Non Amp - AMP (POC) 10 uM [POC]
52 | COc1ccccc1C(=O)Nc1cc2c(cc1N1CCCC1)n(C)c(=O)n2C [PFI-4] | −0.5403

Same assay, conditions: 10 uM, 48 hrs; average relative cell viability (vs 1% DMSO) of non-amplified cells (OVSAHO, CAOV3) minus that of MYC-HSF1 amplified cells (OVCAR8, OVCAR4); positive = greater response in amplified cells; listed as PFI-1 (PF-6405761), 10 µM

Row | Compound | Non Amp - AMP (POC) 10 uM [POC]
53 | COc1ccccc1S(=O)(=O)Nc1ccc2c(c1)CN(C)C(=O)N2 [PFI-1] | 2.51
